{"source": "patent US20130281409A1", "about": "“Myelin Sheath Fatty Acids that Resolve Neuroinflammation” (priority 2012, published 2013)", "key": {"[1]": {"tested_on": "EAE in PLP139-151-immunized SJL/J mice", "experiment": "EAE, lipid or palmitic-acid treatment of established disease", "assay_type": "in vivo, mouse", "experimental": "Animal experiments were approved by, and performed in compliance with, the National Institute of Health guidelines of the Institutional Animal Care and Use Committee at Stanford University. For induction of EAE, 8- to 12-week-old female SJL/J mice (Jackson Laboratory) were immunized subcutaneously with 100 μg of PLP139-151 emulsified in CFA (Difco Laboratories). Lipid and palmitic-acid treatment: Administration of lipid, palmitic acid, or vehicle was initiated once the PLP139-151-immunized mice developed paralysis (representing clinical EAE) and repeated every other day, for a total of ten separate injections. 100 μg of POPS, PGPC, azPC ester, azPC, palmitic acid, or vehicle (0.05% Tween-20 in PBS) was administered in 0.2 ml intravenously in the tail. EAE treatment with lipid: 100 μg of PGPC or sphingomyelin or vehicle ([…] Tween-20 in PBS) was administered in 0.2 ml intravenously in the tail. Treatment with lipid or vehicle was initiated once the PLP139-151-immunized mice developed paralysis (representing clinical EAE) and repeated 3, 6, 12, and 18 days later, for a total of five separate injections."}, "[2]": {"tested_on": "naive MBPAc1-11-TCR transgenic splenocytes", "experiment": "MBPAc1-11-induced cytokine production by MBPAc1-11-TCR transgenic splenocytes", "assay_type": "cell-based, mouse", "conditions": "30 μg/ml lipid; for MBPAc1-11-induced IFN-γ production / MBPAc1-11-induced IL-6 production / MBPAc1-11-induced TNF production: 2 μg/ml MBPAc1-11, 48 hours", "experimental": "Splenocytes were harvested from mice transgenic for the MBPAc1-11-specific T-cell receptor and stimulated with 2 μg/ml of MBPAc1-11 in the presence of 30 μg/ml of lipid. Lymph nodes and spleens were also harvested from naive C57BL/6 mice, and CD3^+ T-cell enrichment columns (R&D systems) were used to isolate CD3^+ T cells. […] Cytokine assays were performed on culture supernatants after 24 (IL-12p40) or 48 hours (IFN-γ, IL-6, and TNF) of culture by using the BD OptEIA™ Mouse ELISA kits (BD Biosciences)."}, "[3]": {"tested_on": "MBPAc1-11-TCR transgenic splenocytes", "experiment": "MBPAc1-11-specific T-cell proliferation (3H-thymidine incorporation)", "assay_type": "cell-based, mouse", "conditions": "30 μg/ml lipid, 2 μg/ml MBPAc1-11", "experimental": "Splenocytes were harvested from mice transgenic for the MBPAc1-11-specific T-cell receptor and stimulated with 2 μg/ml of MBPAc1-11 in the presence of 30 μg/ml of lipid. Lymph nodes and spleens were also harvested from naive C57BL/6 mice, and CD3^+ T-cell enrichment columns (R&D systems) were used to isolate CD3^+ T cells. The purified CD3^+ T cells were stimulated with 5 μg/ml of plate-bound anti-CD3 antibodies and anti-CD28 antibodies in the presence of 30 μg/ml of POPS, PGPC, azPC ester, brain sulfatides, or azPC, 0.25 mM palmitic acid, or 100% ethanol (as the vehicle control). For assessment of proliferation, 1 μCi of ^3H-thymidine was added to each well for the final 18-24 hours of culture, and incorporation of radioactivity was measured by using a Betaplate scintillation counter. Cytokine assays were performed on culture supernatants after 24 (IL-12p40) or 48 hours (IFN-γ, IL-6, and TNF) of culture by using the BD OptEIA™ Mouse ELISA kits (BD Biosciences).\n5×10^6 cells/ml were stimulated in vitro with 2 μg/ml of MBPAc1-11 in the presence of various concentrations of palmitic acid (Sigma), other lipids, or 100% Ethanol (vehicle alone).\nFor assessment of proliferation, 1 μCi of ^3H-thymidine was added to each well for the final 18 hours of culture, and incorporation of radioactivity was quantified using a Betaplate scintillation counter."}, "[4]": {"tested_on": "splenocytes from PLP139-151-immunized SJL mice", "experiment": "PLP139-151-induced proliferation of splenocytes of PLP139-151-immunized mice", "assay_type": "cell-based, mouse", "conditions": "30 μg/ml lipid, 48 hours", "experimental": "PLP-stimulated cells from PLP139-151-immunized mice administered PGPC prophylactically: SJL/J mice were co-injected with PGPC and PLP139-151 in CFA and sacrificed 48 days later. Lymph node cells and splenocytes were then harvested and re-stimulated in vitro (2.5×10^6 cells/ml) with 10 μg/ml of PLP139-151 or with media alone. PLP-stimulated cells from untreated PLP139-151-immunized mice: SJL/J mice were immunized with PLP139-151 in CFA and sacrificed 10 days later. Splenocytes were then harvested and re-stimulated in vitro (at 5×10^5 cells/ml) with 10 μg/ml of PLP139-151 in the presence of 30 μg/ml of POPS, PGPC, azPC ester, or azPC."}, "RAW 264.7 cells [5]": {"tested_on": "RAW 264.7 cells", "experiment": "Proliferation of LPS-stimulated RAW 264.7 macrophage cells", "assay_type": "cell-based, mouse", "conditions": "30 μg/ml lipid, 100 ng/ml LPS, 48 hours", "experimental": "LPS-stimulated RAW 264.7 mouse macrophage cells: 1×10^5 cells/ml of RAW 264.7 cells were stimulated with 100 ng/ml of lipopolysaccharide (LPS) in the presence of 30 μg/ml of POPS, PGPC, azPC ester, or azPC."}, "RAW 264.7 cells [6]": {"tested_on": "RAW 264.7 cells", "experiment": "Apoptosis of LPS-stimulated RAW 264.7 macrophage cells", "assay_type": "cell-based, mouse", "conditions": "30 μg/ml lipid, 100 ng/ml LPS, 48 hours", "experimental": "LPS-stimulated RAW 264.7 mouse macrophage cells: 1×10^5 cells/ml of RAW 264.7 cells were stimulated with 100 ng/ml of lipopolysaccharide (LPS) in the presence of 30 μg/ml of POPS, PGPC, azPC ester, or azPC. Cells were stained according to standard protocols, run on a FACScan flow cytometer (BD Biosciences), and analysed with CellQuest software (BD Immunocytometry Systems) or with FlowJo software version 6.3.2 (Tree Star, Inc.)."}, "[7]": {"tested_on": "NF-κB and ERK pathways, Bcl-2 family proteins", "experiment": "Immunoblot of inflammatory, survival and apoptotic signaling in anti-CD3/anti-CD28-stimulated T cells", "assay_type": "cell-based, mouse", "conditions": "30 μg/ml lipid, 15 min or 24 h", "experimental": "CD3^+ T cells were isolated from the lymph nodes of naïve C57BL/6 mice by using CD3^+ T-cell enrichment columns (R&D systems). […] Cells were washed with ice-cold PBS and lysed in RIPA lysis buffer containing 1X Halt protease and phosphatase inhibitor cocktail (Pierce) with a Dounce homogenizer. Immunoblotting was performed with antibodies against phospho-Bim ([…]), phospho-Bad ([…]), phospho-Bcl-2 ([…]), phospho-IKKα/β (serines 180/181), phospho-p65 ([…]), phospho-ERK1/2 […]), and IκBα from Cell Signaling Technology."}, "[8]": {"conditions": "100 μg i.v. once paralysis developed, every other day, ten injections"}}, "note": "Entries after “also recorded” stand apart in the source; their conditions may differ."}
{"compound": "CCCCCCCCCCCCCCCC(=O)OC[C@H](COP(=O)([O-])OCC[N+](C)(C)C)OC(=O)CCCC(=O)O", "note": "[PGPC, 1-Palmitoyl-2-Glutaroyl-sn-Glycero-3-Phosphocholine]", "values": [{"measurement": "EAE severity, established disease", "setting": "[1]; 100 μg i.v. from disease onset (10 days after immunization), five injections", "result": "attenuated EAE that was already established"}, {"measurement": "EAE severity, established disease", "setting": "[1]; [8]", "result": "ameliorate established EAE"}, {"measurement": "MBPAc1-11-induced cytokine levels (cytokines not specified)", "setting": "[2]; effects less dramatic than POPS and azPC", "result": "reduced levels of some of the cytokines"}, {"measurement": "T-cell proliferation in response to MBPAc1-11", "setting": "[3]", "result": "reduced T-cell proliferation"}, {"measurement": "PLP139-151-induced proliferation of splenocytes", "setting": "[4]", "result": "suppress"}, {"measurement": "proliferation of LPS-activated RAW 264.7 cells", "setting": "RAW 264.7 cells [5]", "result": "suppress proliferation"}, {"measurement": "apoptosis of LPS-activated RAW 264.7 cells", "setting": "RAW 264.7 cells [6]", "result": "induce apoptosis"}, {"measurement": "CD3/CD28-induced activation of the NF-κB and ERK pathways", "setting": "[7]", "result": "suppressed the CD3/CD28-induced activation"}, {"measurement": "CD3/CD28-induced phosphorylation of Bim (serine 69) and Bad (serine 112)", "setting": "[7]", "result": "suppressed the CD3/CD28-induced phosphorylation"}]}
{"compound": "CCCCCCCC/C=C\\CCCCCCCC(=O)O[C@H](COC(=O)CCCCCCCCCCCCCCC)COP(=O)(O)OC[C@H](N)C(=O)O", "note": "[POPS, 1-Palmitoyl-2-Oleoyl-sn-Glycero-3-[Phospho-L-Serine]]", "values": [{"measurement": "EAE severity, established disease", "setting": "[1]; [8]", "result": "ameliorate established EAE"}, {"measurement": "IL-12p40 production", "setting": "[2]; 2 μg/ml MBPAc1-11, 24 hours", "result": "Neither POPS nor the oxidized phosphatidylcholine derivatives affected production"}, {"measurement": "MBPAc1-11-induced IFN-γ production", "setting": "[2]", "result": "did not significantly reduce"}, {"measurement": "MBPAc1-11-induced IL-6 production", "setting": "[2]", "result": "reduced"}, {"measurement": "MBPAc1-11-induced TNF production", "setting": "[2]", "result": "reduced"}, {"measurement": "T-cell proliferation in response to MBPAc1-11", "setting": "[3]", "result": "reduced T-cell proliferation"}, {"measurement": "PLP139-151-induced proliferation of splenocytes", "setting": "[4]", "result": "suppress"}, {"measurement": "proliferation of LPS-activated RAW 264.7 cells", "setting": "RAW 264.7 cells [5]", "result": "suppress proliferation"}, {"measurement": "apoptosis of LPS-activated RAW 264.7 cells", "setting": "RAW 264.7 cells [6]", "result": "induce apoptosis"}, {"measurement": "CD3/CD28-induced activation of the NF-κB and ERK pathways", "setting": "[7]", "result": "suppressed the CD3/CD28-induced activation"}, {"measurement": "CD3/CD28-induced phosphorylation of Bim (serine 69) and Bad (serine 112)", "setting": "[7]", "result": "suppressed the CD3/CD28-induced phosphorylation"}]}
{"compound": "CCCCCCCCCCCCCCCC(=O)OC[C@H](COP(=O)([O-])OCC[N+](C)(C)C)OC(=O)CCCCCCCC(=O)O", "note": "[azPC, 1-Palmitoyl-2-Azelaoyl-sn-Glycero-3-Phosphocholine]", "values": [{"measurement": "EAE severity, established disease", "setting": "[1]; [8]", "result": "ameliorate established EAE"}, {"measurement": "MBPAc1-11-induced IFN-γ production", "setting": "[2]", "result": "reduced"}, {"measurement": "MBPAc1-11-induced IL-6 production", "setting": "[2]", "result": "reduced"}, {"measurement": "MBPAc1-11-induced TNF production", "setting": "[2]", "result": "reduced"}, {"measurement": "T-cell proliferation in response to MBPAc1-11", "setting": "[3]", "result": "reduced T-cell proliferation"}, {"measurement": "PLP139-151-induced proliferation of splenocytes", "setting": "[4]", "result": "suppress"}, {"measurement": "proliferation of LPS-activated RAW 264.7 cells", "setting": "RAW 264.7 cells [5]", "result": "suppressed proliferation; also recorded: suppress proliferation"}, {"measurement": "apoptosis of LPS-activated RAW 264.7 cells", "setting": "RAW 264.7 cells [6]", "result": "increased apoptosis; also recorded: induce apoptosis"}, {"measurement": "CD3/CD28-induced activation of the NF-κB and ERK pathways", "setting": "[7]", "result": "suppressed the CD3/CD28-induced activation"}, {"measurement": "CD3/CD28-induced phosphorylation of Bim (serine 69) and Bad (serine 112)", "setting": "[7]", "result": "suppressed the CD3/CD28-induced phosphorylation"}]}
